Test results as given in patent US6680052B1, “Methods of inhibiting tumor growth using adenosine receptor activated cells” (Endacea, Inc., priority 1999, dated 2004).

Assays:
monocytes = details: cited from earlier work
[1] = system: pulmonary artery endothelial cells; experiment: Phospholipase A2 increase following hypoxia/anoxia of pulmonary artery endothelial cells in vitro; format: cell-based
Method: Following ischemia and reperfusion, activation of A1 adenosine receptors present on pulmonary arterial endothelial cells results in a cytotoxic effect. In heart tissue adenosine, A1 adenosine receptor agonists, or a brief period (from approximately 5 to about 15 minutes) of preconditioning ischemia attenuates ischemia-reperfusion (I-R) injury. See, […] Keith, Am. J. Physiol. 268:[…] (1995). In the lung, thromboxane is released during ischemia and is a mediator of I-R injury. Adenosine produces vasoconstriction in the pulmonary vascular bed by acting on A1 receptors to induce the release of thromboxane. These vasoconstrictor responses in endothelial cells are desensitized by prior treatment with low doses of A1 receptor agonists. It was hypothesized that during preconditioning ischemia, adenosine attenuates ischemia-reperfusion injury of the heart by activation and subsequent desensitization of A1 adenosine receptors. Preconditioning ischemia attenuates ischemia-reperfusion (I-R) injury of both lung and heart. […]

A1 adenosine receptors = molecular target: T1, A1 adenosine receptors (Homo sapiens, UniProt P30542); experiment: Endotoxin induced inhibition of adenylate cyclase in pulmonary arterial endothelial cells; format: cell-based
T1 construct: endogenous in cells; host or cells: pulmonary arterial endothelial cells
T1 sequence (P30542 1-326): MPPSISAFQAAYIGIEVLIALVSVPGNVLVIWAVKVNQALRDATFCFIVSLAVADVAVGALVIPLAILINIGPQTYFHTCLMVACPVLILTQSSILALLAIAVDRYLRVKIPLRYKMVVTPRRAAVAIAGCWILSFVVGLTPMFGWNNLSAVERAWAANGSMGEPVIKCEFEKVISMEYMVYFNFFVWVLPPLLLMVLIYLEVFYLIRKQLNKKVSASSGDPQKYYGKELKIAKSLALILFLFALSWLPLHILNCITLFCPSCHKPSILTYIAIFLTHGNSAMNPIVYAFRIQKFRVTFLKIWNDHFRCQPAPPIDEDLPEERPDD
Excerpt: DPCPX and ^125I-BW A844U. […] Neely, Jin and Keith, Am J. Physiol., Lung Cell Mol. Physiol. , 268:L1036, 1995.

[2] = system: pulmonary arterial endothelial cells; experiment: Thromboxane release from pulmonary arterial endothelial cells; format: cell-based
Excerpt: DPCPX and ^125I-BW A844U. These findings indicate that LPS binds to and activates Al adenosine receptors on pulmonary artery endothelial cells. Also, A1 adenosine receptor antagonists are able to block such endotoxin-induced lung injury, supporting that activation of A1 adenosine receptors is important in endotoxin-induced acute lung injury. Neely, Jin and Keith, Am J. Physiol., Lung Cell Mol. Physiol. , 268:L1036, 1995.
The methods of the present invention also utilize hypoxia and reoxygenation conditions to increase A1 adenosine receptor activation and signal transduction pathways which, following activation, result in the release of cytotoxic substances. As noted above, following ischemia and reperfusion, activation of A1 adenosine receptors present on pulmonary arterial endothelial cells causes a cytotoxic effect (Neely and Keith (1995)), and the release of a cytotoxic substance, thromboxane, has been found by the present inventor to be blocked by an A1 adenosine receptor antagonist (DPCPX). In heart tissue adenosine, A1 adenosine receptor agonists, or a brief period of preconditioning ischemia attenuates ischemia-reperfusion (I-R) injury. In the lung, thromboxane is released during ischemia and is a mediator of I-R injury. Moreover, ischemia and reperfusion enhance the capacity of LPS to produce cytotoxicity and damage organs. […]

[3] = system: human epidermoid carcinoma cells; details: low versus higher concentrations; cited from earlier work
[4] = system: human metastatic cell lines; details: administered directly to the cell lines, in vitro; cited from earlier work

SMILES: [Na+].[Na+].[Na+].[O]=[V]([O-])([O-])[O-] [vanadate, sodium orthovanadate]
- LPS induced production of TNFα (monocytes): enhanced

SMILES: CCCn1c(=O)c2[nH]c(C3CCCC3)nc2n(CCC)c1=O [DPCPX, 1,3 dipropyl 8 cyclopentylxanthine]
- increase in phospholipase A2 (PLA2) [1]: inhibits
- endotoxin induced inhibition of adenylate cyclase (A1 adenosine receptors): blocked
- release of thromboxane ([2]; following ischemia and reperfusion, A1 adenosine receptor activation): blocked
- endotoxin induced thromboxane release ([2]; pulmonary arterial endothelial cells): blocked

SMILES: Nc1ncnc2c1ncn2[C@@H]1O[C@H](CO)[C@@H](O)[C@H]1O [adenosine]
- colony formation [3]: biphasic response

SMILES: CCCn1c(=O)c2[nH]c(-c3ccc(Cl)cc3N)nc2n(CCC)c1=O [PACPX, 1,3-dipropyl-8-(2-amino-4-chloropheny)-xanthine]
- effect on cell growth [4]: inhibitory effect

SMILES: CCNC(=O)[C@H]1O[C@@H](n2cnc3c(N)ncnc32)[C@H](O)[C@@H]1O [NECA, 5′-(N-ethyl)-carboxamidoadenosine]
- effect on cell growth [4]: inhibitory effect
